PubChem BioAssay AID330 (DTP/NCI, 2004)
Where “and” joins values, the source holds several entries; their conditions need not be identical. Equal entries are not always repeated. Inconclusive results and toxic doses are left out. The calls were made as follows: active = survival T/C of 150% or more; inactive = T/C below 125% in these data.

System: P388 leukemia ip, CD2F1 mice, survival T/C
Assay: NCI In Vivo Anticancer Drug Screen. Data for tumor model P388 Leukemia (intraperitoneal) in CD2F1 (CDF1) mice
Settings: endpoint: median survival time, higher = longer survival
Summary of the method: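 Mice carrying the transplanted tumor received test compound or vehicle. Survival was recorded in each group, and the value is the treated-group measurement divided by that of the vehicle-treated control group.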

[1] = dose: 50.0 mg/kg/injection, schedule: Q01DX005 (ip), vehicle: saline with Tween-80
[2] = dose: 100.0 mg/kg/injection, schedule: Q01DX005 (ip), vehicle: saline with Tween-80
[3] = dose: 200.0 mg/kg/injection, schedule: Q01DX005 (ip), vehicle: saline with Tween-80
[4] = dose: 60.0 mg/kg/injection, schedule: Q01DX005 (ip), vehicle: saline with Tween-80
[5] = dose: 120.0 mg/kg/injection, schedule: Q01DX005 (ip), vehicle: saline with Tween-80
[6] = dose: 240.0 mg/kg/injection, schedule: Q01DX005 (ip), vehicle: saline with Tween-80
[7] = dose: 12.5 mg/kg/injection, schedule: Q01DX009 (ip), vehicle: other
[8] = dose: 25.0 mg/kg/injection, schedule: Q01DX009 (ip), vehicle: other
[9] = dose: 50.0 mg/kg/injection, schedule: Q01DX009 (ip), vehicle: other
[10] = dose: 100.0 mg/kg/injection, schedule: Q01DX009 (ip), vehicle: other
[11] = dose: 200.0 mg/kg/injection, schedule: Q01DX009 (ip), vehicle: other
[12] = dose: 50.0 mg/kg/injection, schedule: Q01DX005 (ip), vehicle: saline
[13] = dose: 100.0 mg/kg/injection, schedule: Q01DX005 (ip), vehicle: saline
[14] = dose: 12.5 mg/kg/injection, schedule: Q01DX009 (ip), vehicle: saline
[15] = dose: 25.0 mg/kg/injection, schedule: Q01DX009 (ip), vehicle: saline
[16] = dose: 50.0 mg/kg/injection, schedule: Q01DX009 (ip), vehicle: saline
[17] = dose: 200.0 mg/kg/injection, schedule: Q01DX009 (ip), vehicle: saline
[18] = dose: 200.0 mg/kg/injection, schedule: Q01DX009 (ip), vehicle: saline with Tween-80
[19] = dose: 50.0 mg/kg/injection, schedule: Q01DX009 (ip), vehicle: Klucel (hydroxypropylcellulose) (HPC)
[20] = dose: 100.0 mg/kg/injection, schedule: Q01DX009 (ip), vehicle: Klucel (hydroxypropylcellulose) (HPC)
[21] = dose: 100.0 mg/kg/injection, schedule: Q01DX009 (ip), vehicle: saline with Tween-80

Measured: T/C

OC1c2ccccc2-c2ccc(N(Cc3ccc(Br)cc3)Cc3ccc(Br)cc3)cc21 (centres undefined)
inactive: [1] 100 % of control | [2] 91 % of control | [3] 92 % of control

OC1OC(Cn2c3ccccc3c3ccccc32)C(O)C(O)C1O (centres undefined)
inactive: dose: 50.0 mg/kg/injection, schedule: Q01DX001 (ip), vehicle: saline with Tween-80 100 % of control | dose: 100.0 mg/kg/injection, schedule: Q01DX001 (ip), vehicle: saline with Tween-80 107 % of control | dose: 200.0 mg/kg/injection, schedule: Q01DX001 (ip), vehicle: saline with Tween-80 114 % of control

Cn1c(N)nc2c(nc(OCc3ccccc3)n2C2OC(CO)C(O)C2O)c1=O (centres undefined)
inactive: [4] 100 % of control | [5] 94 % of control | [6] 103 % of control

COC(=O)C(CS)NC(=O)C(Cc1c[nH]c2ccccc12)NC(=O)OC(C)(C)C (centres undefined)
inactive: [7] 88 % of control | [8] 103 % of control | [9] 100 % of control | [10] 99 % of control | [11] 103 % of control

NC(CSCc1ccccc1)C(=O)Nc1ccc([N+](=O)[O-])cc1 (centres undefined)
inactive: dose: 50.0 mg/kg/injection, schedule: Q01DX005 (ip), vehicle: Klucel (hydroxypropylcellulose) (HPC) 110 % of control | dose: 100.0 mg/kg/injection, schedule: Q01DX005 (ip), vehicle: Klucel (hydroxypropylcellulose) (HPC) 101 % of control | dose: 200.0 mg/kg/injection, schedule: Q01DX005 (ip), vehicle: Klucel (hydroxypropylcellulose) (HPC) 104 % of control

C(=C(\CCc1ccccn1)c1ccccn1)/c1cccnc1
inactive: dose: 100.0 mg/kg/injection, schedule: Q01DX001 (ip), vehicle: saline 100 % of control | dose: 200.0 mg/kg/injection, schedule: Q01DX001 (ip), vehicle: saline 101 % of control | dose: 400.0 mg/kg/injection, schedule: Q01DX001 (ip), vehicle: saline 104 % of control

[CH3][Ge]1([CH3])[CH]=CC(O)[CH2]1 (centres undefined)
inactive: [12] 98 % of control | [13] 100 % of control | dose: 200.0 mg/kg/injection, schedule: Q01DX005 (ip), vehicle: saline 100 % of control

Nc1nnc2nc(CC(=O)c3ccccc3[N+](=O)[O-])c(CC(=O)c3ccccc3[N+](=O)[O-])nn12
inactive: [4] 100 % of control | [5] 101 % of control | [6] 100 % of control

C(=NCCCN=CC1CCCC[N-]1)C1CCCC[N-]1.[Cu+2].[O-][Cl+3]([O-])([O-])O (centres undefined)
inactive: dose: 3.12 mg/kg/injection, schedule: Q01DX009 (ip), vehicle: saline with Tween-80 103 % of control | dose: 6.25 mg/kg/injection, schedule: Q01DX009 (ip), vehicle: saline with Tween-80 101 % of control | dose: 12.5 mg/kg/injection, schedule: Q01DX009 (ip), vehicle: saline with Tween-80 103 % of control and 112 % of control | dose: 25.0 mg/kg/injection, schedule: Q01DX009 (ip), vehicle: saline with Tween-80 103 % of control

CCN(CC)CCCCCCNc1cc(OC)cc2cccnc12
inactive: [14] 86 % of control | [15] 96 % of control | [16] 90 % of control

O=S1(=O)C2C=CCCC1C=C2 (centres undefined)
inactive: [14] 92 % of control | [15] 96 % of control | [16] 100 % of control | [17] 100 % of control

CCCn1cc2c3c(cccc31)[C@H]1C[C@@H](C)CN(C)[C@@H]1C2
inactive: dose: 3.12 mg/kg/injection, schedule: Q01DX005 (ip), vehicle: saline with Tween-80 102 % of control and 107 % of control | dose: 6.25 mg/kg/injection, schedule: Q01DX005 (ip), vehicle: saline with Tween-80 100 % of control and 105 % of control and 107 % of control | dose: 12.5 mg/kg/injection, schedule: Q01DX005 (ip), vehicle: saline with Tween-80 102 % of control and 92 % of control and 93 % of control | dose: 25.0 mg/kg/injection, schedule: Q01DX005 (ip), vehicle: saline with Tween-80 98 % of control and 101 % of control | [1] 101 % of control | [2] 104 % of control | [3] 98 % of control

Nc1ccc(NC(=O)c2ccc([N+](=O)[O-])cc2)cc1
inactive: [8] 115 % of control | [9] 112 % of control | [10] 106 % of control | [11] 115 % of control | dose: 400.0 mg/kg/injection, schedule: Q01DX009 (ip), vehicle: other 123 % of control

Cc1ccc2c(c1)C1(C)C=C(CN3CCN(C)CC3)C(=O)CC1O2 (centres undefined)
inactive: [12] 108 % of control | [13] 103 % of control

CP1(=O)CCC23CCCCC21O3 (centres undefined)
inactive: [16] 104 % of control | dose: 100.0 mg/kg/injection, schedule: Q01DX009 (ip), vehicle: saline 111 % of control | [17] 95 % of control

COc1ccc(/C=C/Cc2cc3c(cc2O)OCO3)cc1
inactive: [4] 104 % of control | [5] 101 % of control | [6] 101 % of control

N#CC(=C1C=CC(=NO)C=C1)c1ccccc1
inactive: [18] 115 % of control

Cc1cnc(C2OCCO2)c2cccc(N)c12
inactive: [19] 104 % of control | [20] 105 % of control | dose: 200.0 mg/kg/injection, schedule: Q01DX009 (ip), vehicle: Klucel (hydroxypropylcellulose) (HPC) 112 % of control

Nc1nc(Cl)cc(Cl)n1
inactive: dose: 12.5 mg/kg/injection, schedule: Q01DX009 (ip), vehicle: Klucel (hydroxypropylcellulose) (HPC) 94 % of control | dose: 25.0 mg/kg/injection, schedule: Q01DX009 (ip), vehicle: Klucel (hydroxypropylcellulose) (HPC) 107 % of control | [19] 108 % of control | [20] 99 % of control

CCOCC1COc2c(cc3[nH]cc(C(=O)OCC)c(=O)c3c2Cl)O1 (centres undefined) (tested in a mixture with another compound)
inactive: dose: 50.0 mg/kg/injection, schedule: Q01DX009 (ip), vehicle: saline with Tween-80 94 % of control | [21] 99 % of control | [18] 101 % of control

O=C(O)Cn1ccnc1[N+](=O)[O-]
inactive: dose: 12.5 mg/kg/injection, schedule: Q01DX009 (ip), vehicle: distilled water + Tween-80 100 % of control | dose: 25.0 mg/kg/injection, schedule: Q01DX009 (ip), vehicle: distilled water + Tween-80 100 % of control | dose: 50.0 mg/kg/injection, schedule: Q01DX009 (ip), vehicle: distilled water + Tween-80 118 % of control | dose: 100.0 mg/kg/injection, schedule: Q01DX009 (ip), vehicle: distilled water + Tween-80 90 % of control | dose: 200.0 mg/kg/injection, schedule: Q01DX009 (ip), vehicle: distilled water + Tween-80 109 % of control

COc1ccc(N=Nc2ccc(N)c3cccnc23)c(OC)c1
inactive: dose: 100.0 mg/kg/injection, schedule: Q04DX002 (ip), vehicle: saline with Tween-80 97 % of control | dose: 200.0 mg/kg/injection, schedule: Q04DX002 (ip), vehicle: saline with Tween-80 106 % of control | dose: 400.0 mg/kg/injection, schedule: Q04DX002 (ip), vehicle: saline with Tween-80 92 % of control

O=C(O)CNOCc1ccccc1
inactive: [7] 95 % of control | [8] 102 % of control | [9] 102 % of control | [10] 93 % of control | [11] 89 % of control

C(=C\c1ccc2ccccc2n1)/c1ccc2c(c1)OCO2
inactive: [21] 105 % of control | [18] 95 % of control | dose: 400.0 mg/kg/injection, schedule: Q01DX009 (ip), vehicle: saline with Tween-80 110 % of control
